Columns and labels:
[1] = Plasma glucose levels after acute oral gavage; format: in vivo; details: oral 500 mg/kg, adult male Wistar rats, FIG. 3C
Description: Experimental procedures with animals were carried out in strict accordance with the recommendations in the European Communities directive 2010/63/EU and Spanish legislation (Real Decreto 53/2013, BOE 34/11370-11421, 2013) regulating the care and use of laboratory animals. The protocol was approved by the Ethics Committee for Animal Experiments of the University of Malaga. All studies involving animals were reported in accordance with the ARRIVE guidelines for reporting experiments involving animals (Kilkenny, C., Browne, W. J., Cuthill, I. C., Emerson, M. & Altman, D. G. Improving Bioscience Research Reporting: The ARRIVE Guidelines for Reporting Animal Research. PLoS Biol 8, e1000412, https://doi.org/10.1371/journal.pbio.1000412 (2010). All efforts were made to minimize animal suffering and to reduce the number of animals used. The experiments were performed on 4-to-5-week-old male Wistar rats (Crl:Wl; Charles River Laboratories, Barcelona, Spain). The animals were under a standard 12 h light-dark cycle in a room with temperature and humidity control. All the rats were provided with water and commercially available rat standard pellet diet (STD) (3.02 kcal/g with 30 kcal % protein, 55 kcal % carbohydrates and 15 kcal % fat) ad libitum. […]

[2] = tested on: Mitogen-activated Protein Kinase (MAPK/ERK1/2); test: Hippocampal MAPK/ERK1/2 (western blot) after 10 days of oral drinking; format: in vivo, Wistar rats; details: oral by drinking 100 mg/Kg for 10 days, hippocampus, FIG. 10
Description: Animal experimental procedures were carried out in accordance with the European Communities directive 2010/63/EU and Spanish legislation (Real Decreto 53/2013). The protocol was approved by the Research and approved by Ethics Committee for Animal Experiments of the University of Malaga, Spain. In accordance with the ARRIVE guidelines, all efforts were made to minimize animal suffering and to reduce the number of animals used per experimental group. Chronic drinking experiments on Wistar rats were performed on 20 male rats. All adult rats, ageing 2 months (≈300 g of body weight), were provided by Charles River Laboratories (Barcelona, Spain). The animals were housed individually under a standard 12 h light-dark cycle in a room with temperature and humidity control. Water and rat chow pellets were provided ad libitum throughout the course of the present study. […]
Western Blot Analysis. […] Bands were quantified by densitometric analysis using ImageJ software (Rasband, WS, ImageJ, US National Institutes of Health, Bethesda, Md., USA). […] The results were expressed as the protein/α-Adaptin ratio or phosphorylated/total protein ratio and normalized to the control group (Y axis represents ‘fold mean of the control values’).
All data are expressed as mean±SEM. […]

COC1[C@@H](O)[C@@H](O)C(O)[C@H](O)[C@H]1O (stereo partly drawn) [DPIN, (1S,2S,4S,5R)-6-methoxycyclohexane-1,2,3,4,5-pentol]
glucose levels in plasma [1]: maintenance | kinase activation and total expression of MAPK/ERK1/2 [2]: No other changes

Reference: patent US20220313620A1, “COMPOSITION FOR PREVENTING AND TREATING TAUOPATHIES” (SERVICIO ANDALUZ DE SALUD, priority 2019, published 2022)
